Test results as given in PMC6423129, “Activity and structural analysis of GRL-117C: a novel small molecule CCR5 inhibitor active against R5-tropic HIV-1s” (Scientific Reports, 2019).
Where two headings read alike, the source gives them in different places.

How the values were obtained:
CCR5 [1] = target: T1, CCR5 (Homo sapiens, UniProt P51681); assay: Inhibition of 125I-MIP-1α binding to CCR5 (CCR5+ CHO cells)
T1 construct: expressed in transfected cells; host or cells: Chinese hamster ovary (CHO) cells expressing CCR5
Description: (§1) In order to determine whether GRL derivatives block the binding of CC-chemokines to CCR5, we conducted a CC-chemokine binding inhibition assay using ^125I-labeled CC-chemokines (^125I-RANTES, ^125I-MIP-1α, and ^125I-MIP-1β) and CCR5 expressing cells.
(§2) CCR5^+ CHO cells were incubated with (A) ^125I-MIP-1α, (B) ^125I-MIP-1β, and (C) ^125I-RANTES (200 ng/ml) in the presence or absence of varying concentrations of CCR5 inhibitors. Data are shown as means ± s.d. of three independent experiments.
(§3) The inhibition of the binding of ^125I-labeled CC-chemokines ([^125I] RANTES, [^125I] MIP-1α, or [^125I] MIP-1β) to CCR5 by various CCR5 inhibitors was measured as previously described. Calcium flux inhibition assays were also performed with CCR5 inhibitors, and were carried out with the Fluo-4 Direct^TM calcium reagent (Invitrogen); assays were conducted as previously described with minor modifications. In brief, CHO-CCR5 cells (5 × 10^5 cells) were exposed to Fluo-4 Direct^TM calcium reagent for 60 min at 37 °C in RPMI containing 5% FCS. Cells were then incubated with the test compound for 30 min at varying concentrations. Subsequently, cells were exposed to either MIP-1α, MIP-1β, or RANTES at 200 ng/ml. Relative increases in cytosolic Ca^2+ levels after chemokine exposure were determined with flow cytometry (FACSCalibur, BD Biosciences), and IC50 values of cytosolic Ca^2+ mobilization (Ca^2+ flux) were compared with the Ca^2+ flux level in drug-free control samples.

pTHRO.c/2626 = assay: MAGI assay, T/F HIV-1 clone pTHRO.c/2626; format: cell-based; settings: Human immunodeficiency virus 1, MAGI
Excerpt: (§4) We also examined the activity of GRL-compounds against Transmitter/founder (T/F) HIV-1 viruses. T/F viruses are involved in the initial infection. It is considered that T/F viruses virtually always use CCR5 rather than CXCR4 and infect T cells but not macrophages because […] of CD4 is needed to mediate virus entry for the initial transmission[20]–[24]. […] We obtained four HIV-1 T/F infectious clones. We determined the antiviral activity of GRL-117C, GRL-10007C and GRL-10018C on these HIV-1 clones using MAGI assay.
(§5) MAGI-CCR5 cells[18] were maintained in DMEM supplemented with 10% fetal calf serum (FCS: Gemini Bio-Products, West Sacramento, CA), 200 μg/ml G418, 100 μg/ml hygromycin B, and 100 μg/ml zeomycin. The Chinese hamster ovary (CHO) cells expressing CCR5[19] were maintained in Ham’s F-12 medium (GIBCO-BRL, Rockville, MD) supplemented with 10% FCS, 50 U/ml penicillin, and 50 μg/ml streptomycin in the presence of 5 μg/ml blasticidin S hydrochloride. TZM-bl cells were obtained from the NIH AIDS Reagent Program, and were cultured in DMEM with 10% FCS. Peripheral blood mononuclear cells (PBMCs) were isolated from buffy coats of HIV-1 seronegative individuals, and were activated with 10 μg/ml phytohemagglutinin (PHA) prior to use[16]. A laboratory wild-type R5-HIV-1 strain (HIV-1Ba-L)[37] was employed for drug susceptibility assays. AD101 (experimental CCR5 inhibitor) and VVC-resistant HIV clones[7],[8] were provided by Dr. John P. Moore of Cornell University for this study. The clones were propagated with activated PBMCs, and were used for the assays. […] The following reagents (plasmids) for T/F HIV-1 viruses[22],[24] were obtained through the NIH AIDS Reagent Program, Division of AIDS, NIAID, NIH: pCH040.c/2625 (cat# 11740), pCH106.c/2633 (cat# 11743), pTHRO.c/2626 (cat# 11745), and pCH058.c/2960 (cat# 11856), from Dr. John Kappes and Dr. Christina Ochsenbauer.
(§6) Antiviral assays using PHA-PBMCs (p24 assay) were conducted as previously reported[16],[38]. In brief, PHA-PBMCs (1 × 10^6/ml) were exposed to 50 TCID50 of HIV-1Ba-L or drug-resistant HIV-1 infectious clones in the presence or absence of various concentrations of drugs; 10-fold serial dilutions were performed in 96-well microculture plates. The amount of p24 antigens produced by the cells was determined on day 7 in the culture via a commercially available ELISA kit (PerkinElmer). The p24 production level in drug-free control cell cultures was used as the reference. […] Antiviral assays using MAGI-CCR5 cells (MAGI assay) were conducted as previously reported[16],[39]. Single-round virus infection assays using TZM-bl cells infected with R5-HIV-1s (HIV-1YU2, HIV-1KP-5pc, and HIV-1KP-5mvcR)[10] were also conducted as previously described.

pCH0.6.c/2633 = assay: MAGI assay, T/F HIV-1 clone pCH0.6.c/2633; format: cell-based; settings: Human immunodeficiency virus 1, MAGI
Excerpt: as §4, §5, §6

CC1/85 cl.7 = assay: Anti-HIV-1 assay, drug-naive clinical strain CC1/85 cl.7; format: cell-based
Description: (§7) MAGI-CCR5 cells[18] were maintained in DMEM supplemented with 10% fetal calf serum (FCS: Gemini Bio-Products, West Sacramento, CA), 200 μg/ml G418, 100 μg/ml hygromycin B, and 100 μg/ml zeomycin. The Chinese hamster ovary (CHO) cells expressing CCR5[19] were maintained in Ham’s F-12 medium (GIBCO-BRL, Rockville, MD) supplemented with 10% FCS, 50 U/ml penicillin, and 50 μg/ml streptomycin in the presence of 5 μg/ml blasticidin S hydrochloride. TZM-bl cells were obtained from the NIH AIDS Reagent Program, and were cultured in DMEM with 10% FCS. Peripheral blood mononuclear cells (PBMCs) were isolated from buffy coats of HIV-1 seronegative individuals, and were activated with 10 μg/ml phytohemagglutinin (PHA) prior to use[16]. A laboratory wild-type R5-HIV-1 strain (HIV-1Ba-L)[37] was employed for drug susceptibility assays. AD101 (experimental CCR5 inhibitor) and VVC-resistant HIV clones[7],[8] were provided by Dr. John P. Moore of Cornell University for this study. The clones were propagated with activated PBMCs, and were used for the assays. A clinical HIV-1 strain, HIV-1KP-5pc, and an MVC-resistant isolate, HIV-1KP-5mvcR, were prepared and used for antiviral assays, as previously described[10],[38]. The following reagents (plasmids) for T/F HIV-1 viruses[22],[24] were obtained through the NIH AIDS Reagent Program, Division of AIDS, NIAID, NIH: pCH040.c/2625 (cat# 11740), pCH106.c/2633 (cat# 11743), pTHRO.c/2626 (cat# 11745), and pCH058.c/2960 (cat# 11856), from Dr. John Kappes and Dr. Christina Ochsenbauer.
as §6

R5-HIV-1BaL = assay: p24 assay using PBMCs and R5-HIV-1BaL; format: cell-based; settings: Ba-L (PBMCs), day 7
Description: as §7, §6

pCH058.c/2960 = assay: MAGI assay, T/F HIV-1 clone pCH058.c/2960; format: cell-based; settings: Human immunodeficiency virus 1, MAGI
Excerpt: as §4, §5, §6

R5-HIV-1Ba-L = assay: MAGI assay using MAGI/CCR5 cells and R5-HIV-1Ba-L; format: cell-based; settings: Ba-L (MAGI)
Description: as §7, §6

pCH040.c/2625 = assay: MAGI assay, T/F HIV-1 clone pCH040.c/2625; format: cell-based; settings: Human immunodeficiency virus 1, MAGI
Excerpt: as §4, §5, §6

CCR5 [2] = target: T1, CCR5; assay: Inhibition of 125I-MIP-1β binding to CCR5 (CCR5+ CHO cells)
Description: as §1, §2, §3

HIV-1KP-5mvcR = assay: TZM-bl single-round infection assay, MVC-resistant HIV-1KP-5mvcR; format: cell-based; settings: in words; data not shown
Description: as §7, §6

CCR5 [3] = target: T1, CCR5; assay: Inhibition of 125I-RANTES binding to CCR5 (CCR5+ CHO cells)
Description: as §1, §2, §3

CC1/85 cl.6 = assay: Anti-HIV-1 assay, drug-naive clinical strain CC1/85 cl.6; format: cell-based
Description: as §7, §6

[4] = test system: D1/85.16 cl.23 (VVC resistant); assay: microbe, parasite or virus in culture; format: cell-based, HIV-1
Description: as §7, §6

[5] = test system: CC101.19 cl.7 (AD101 resistant); assay: microbe, parasite or virus in culture; format: cell-based, HIV-1
Description: as §7, §6

[6] = Human immunodeficiency virus 1, BAL, PBMC, 168 h
[7] = Human immunodeficiency virus 1, BAL
[8] = Human immunodeficiency virus 1, D1/85.16 cl.23 (VVC resistant)
[9] = Human immunodeficiency virus 1, CC101.19 cl.7 (AD101 resistant)

T1 sequence (P51681 whole entry): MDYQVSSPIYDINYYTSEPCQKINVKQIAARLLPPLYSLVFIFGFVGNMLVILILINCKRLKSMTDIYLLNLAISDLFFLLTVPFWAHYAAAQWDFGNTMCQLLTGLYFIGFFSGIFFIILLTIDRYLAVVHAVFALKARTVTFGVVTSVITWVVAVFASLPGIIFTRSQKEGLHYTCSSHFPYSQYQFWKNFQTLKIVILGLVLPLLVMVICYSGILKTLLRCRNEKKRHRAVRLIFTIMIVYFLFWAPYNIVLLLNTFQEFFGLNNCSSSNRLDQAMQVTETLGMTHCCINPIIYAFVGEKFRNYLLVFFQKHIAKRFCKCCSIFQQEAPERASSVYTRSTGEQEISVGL

Cc1cccc(C)c1C(=O)N1C2CCC1CC(N1CCN(C(C)c3ccc(C(F)(F)F)cc3)C(C)C1)C2 (centres unmarked) [GRL-10007C]
EC50 (CCR5 [1]): 1.1 nM
IC50 (pTHRO.c/2626): 3.2 ± 0.4 nM
IC50 (pCH0.6.c/2633): 5.3 ± 3.4 nM
IC50 (CC1/85 cl.7; Human immunodeficiency virus 1): 15.8 nM
IC90 (CC1/85 cl.7; Human immunodeficiency virus 1): 80.3 nM
IC50 (R5-HIV-1BaL; [6]): 16.9 nM
IC90 (R5-HIV-1BaL; [6]): 126 nM
IC50 (pCH058.c/2960): 6.1 ± 3.2 nM
IC50 (R5-HIV-1Ba-L; [7]): 1.4 nM
IC90 (R5-HIV-1Ba-L; [7]): 9.5 nM
IC50 (pCH040.c/2625): 3.1 ± 0.3 nM
EC50 (CCR5 [2]): 2.5 nM
activity against MVC-resistant HIV-1 (HIV-1KP-5mvcR) (HIV-1KP-5mvcR): failed to demonstrate activity
EC50 (CCR5 [3]): 628 nM
binding of 125I-RANTES remaining (CCR5 [3]; in the presence of 1 μM compound): more than 40%
IC50 (CC1/85 cl.6; Human immunodeficiency virus 1): 12.5 nM
IC90 ([4]; Human immunodeficiency virus 1): 536 nM
IC50 [4, 8]: 56.9 nM
IC90 ([5]; Human immunodeficiency virus 1): 472 nM
IC50 [5, 9]: 41.1 nM

Cc1ccc(-c2ccc3c(c2)C=C(C(=O)Nc2ccc(C[N+](C)(C)C4CCOCC4)cc2)CCC3)cc1.[Cl-] [TAK-779]
IC50 (CC1/85 cl.7; CC1/85 cl.7, drug naive R5-HIV-1 clinical strain, read-out: IC50): 28.3 nM
IC90 (CC1/85 cl.7; CC1/85 cl.7, drug naive R5-HIV-1 clinical strain, read-out: IC90): 101 nM
IC50 (R5-HIV-1BaL): 31.6 nM
IC90 (R5-HIV-1BaL): 187 nM
IC50 (R5-HIV-1Ba-L): 15.7 nM
IC90 (R5-HIV-1Ba-L): 88.1 nM
IC50 (CC1/85 cl.6; CC1/85 cl.6, drug naive R5-HIV-1 clinical strain, read-out: IC50): 22.7 nM
fold increases of IC50s compared to wild type (CC1/85 cl.7) ([4]; D1/85.16 cl.23 (VVC resistant) vs CC1/85 cl.7): (×5.9) fold
IC50 ([4]; D1/85.16 cl.23 (VVC resistant), read-out: IC50): 166 nM
IC90 ([4]; D1/85.16 cl.23 (VVC resistant), read-out: IC90): 747 nM
fold increases of IC50s compared to wild type (CC1/85 cl.7) ([5]; CC101.19 cl.7 (AD101 resistant) vs CC1/85 cl.7): (×14) fold
IC50 ([5]; CC101.19 cl.7 (AD101 resistant), read-out: IC50): 400 nM
IC90 ([5]; CC101.19 cl.7 (AD101 resistant), read-out: IC90): > 1000 nM

CCO/N=C(\c1ccc(Br)cc1)C1CCN(C2(C)CCN(C(=O)c3c(C)cc[n+]([O-])c3C)CC2)CC1 [SCH-C]
IC50 (CC1/85 cl.7; Human immunodeficiency virus 1): 6.1 nM
IC90 (CC1/85 cl.7; Human immunodeficiency virus 1): 67.7 nM
IC50 (R5-HIV-1BaL; [6]): 13.9 nM
IC90 (R5-HIV-1BaL; [6]): 97.2 nM
IC50 (R5-HIV-1Ba-L; [7]): 4.8 nM
IC90 (R5-HIV-1Ba-L; [7]): 15.9 nM
IC50 (CC1/85 cl.6; Human immunodeficiency virus 1, CC1/85 cl.6, drug naive R5-HIV-1 clinical strain, read-out: IC50): 5.2 nM
IC90 ([4]; Human immunodeficiency virus 1): > 1000 nM
IC50 [4, 8]: 412 nM
IC90 ([5]; Human immunodeficiency virus 1): > 1000 nM
IC50 [5, 9]: > 1000 nM
